Data from patent publication EP0254179A2, “Tetrahydrobenzothiazoloquinolines, their preparation and use” (BOEHRINGER INGELHEIM KG, priority 1986, dated 1988).

Legend:
[1] = test system: präsynaptischer Dopaminrezeptoren; test: Determination of dopamine utilisation after AMPT treatment (whole-brain dopamine by HPLC with electrochemical detection); assay type: in vivo, Ratten; settings: rats; 10 mg/kg s.c. at 0 and 2 hours; AMPT 250 mg/kg intraperitoneal; brains taken at 4 hours
From the text: (§1) Im Vergleich zu der bekannten racemischen Verbindung 6-Methyl-9-amino-5,6,6a,7-tetrahydro-4H-benzo[de]thiazolo[4,-5-g] chinolin wurden daher beispielsweise die Verbindungen ((-)-Enantiomere) • a= 9-Amino-5,6,6a,7-tetrahydro-4H-benzo[de]thiazolo[4,5-g] chinolin • b= 6-Ethyl-9-amino-5,6,6a,7-tetrahydro-4H-benzo[de]-thiazolo[4,5-g]chinolin. • c= 6-Propyl-9-amino-5,6,6a,7-tetrahydro-4H-benzo[de]-thiazolo[4,5-g]chinolin • d= 6-Methyl-9-benzylamino-5,6,6a,7-tetrahydro-4H-benzo[de]-thiazolo[4,5-g]chinolin • e= 6-Ethyl-9-methylamino-5,6,6a,7-tetrahydro-4H-benzo[de]-thiazolo[4,5-g]chinolin • f= 6-Ethyl-9-dimethylamino-5,6,6a,7-tetrahydro-4H-benzo[de]thiazolo[4,5-g]chinolin. hinsichtlich ihrer Beeinflussung präsynaptischer Dopaminrezeptoren untersucht, wobei zunächst die Wirkung auf die exploratorische Aktivität von Mäusen getestet und anschließend die Beeinflussung der Dopaminutilisation und der Dopaminsynthese an Ratten wie folgt bestimmt wurden:
Die Dopaminutilisation wurde an Ratten gemessen. Bei Tieren, die mit α-Methylparatyrosin (AMPT) (250 mg/kg intraperitoneal) behandelt werden, fällt die Dopaminkonzentration im Gesamthirn mit fortschreitender Versuchsdauer ab. Durch Substanzen, die an Autorezeptoren wirken, kann der Dopaminabfall (im Vergleich zu mit Kochsalzlösung behandelten Kontrolltieren) vermindert werden.
Die Testsubstanzen werden zum Zeitpunkt 0 und 2 Stunden des Experiments - soweit nicht anders angegeben - zur Erstellung einer Dosis-Wirkungskurve mit 0,01 bis 10 mg/kg s.c. appliziert. Zum Zeitpunkt 4 Stunden des Experiments werden die Tiere getötet und die Gehirne der Dopaminbestimmung mittels Hochdruckflüssigkeitchromatographie mit elektrochemischer Detektion zugeführt. Bestimmt wird die durch die Testsubstanz bewirkte prozentuelle Steigerung der Dopaminutilisation nach AMPT-Behandlung.

[2] = test system: präsynaptischer Dopaminrezeptoren; test: Inhibition of exploratory activity (light-beam interruptions by groups of 5 mice); assay type: in vivo, Mäusen; settings: 10 mg/kg subcutaneous, measured 1 hour after injection over 5 minutes, versus saline controls
From the text: as §1
Die Aktititätsmessung erfolgte in Beobachtungskäfigen, die mit einer Infrarotlichtschranke versehen sind. Gemessen wird die Häufigkeit der Unterbrechung des Lichtstrahles durch eine Gruppe von 5 Mäusen innerhalb von 5 Minuten. Gruppen von jeweils 5 Tieren erhalten die zu untersuchende Substanz in einer Dosis von 10 mg/kg subkutan injiziert. 1 Stunde später werden die Tiere in die Beobachtungskäfige gebracht, wo sofort mit der Messung der exploratorischen Aktivität über 5 Minuten begonnen wird. Parallel bzw. alternierend zu Gruppen, die mit Testsubstanz behandelt wurden, werden kochsalzbehandelte Kontrollgruppen (o,9%ig; 0,1 ml/10 g Körpergewicht subkutan) untersucht.
Alle diejenigen Substanzen wurden in die weitere Versuchsreihe aufgenommen, die als Vorbedingung eine Hemmung der exploratorischen Aktivität gegenüber den Kontrolltieren von >50% aufwiesen, wie es beispielsweise für die oben näher bezeichneten Verbindungen a,b,c,d,e, und f nachzuweisen war.

Structure (SMILES) | Prozentuale Steigerung der Dopaminutilisation [1] [%] | Hemmung der exploratorischen Aktivität gegenüber den Kontrolltieren [2] [%]
CN1CCc2cccc3c2C1Cc1sc(N)nc1-3 (racemic) [Vergleich, 6-Methyl-9-amino-5,6,6a,7-tetrahydro-4H-benzo[de]thiazolo[4,5-g] chinolin, reference compound] | 34 | 
Nc1nc2c(s1)CC1NCCc3cccc-2c31 (stereo not drawn) [a, 9-Amino-5,6,6a,7-tetrahydro-4H-benzo[de]thiazolo[4,5-g] chinolin] |  | > 50
CCN1CCc2cccc3c2C1Cc1sc(N)nc1-3 (stereo not drawn) [b, 6-Ethyl-9-amino-5,6,6a,7-tetrahydro-4H-benzo[de]thiazolo[4,5-g]chinolin] | 64 | > 50
CCCN1CCc2cccc3c2C1Cc1sc(N)nc1-3 (stereo not drawn) [c, 6-Propyl-9-amino-5,6,6a,7-tetrahydro-4H-benzo[de]thiazolo[4,5-g]chinolin] | 112 | > 50
CN1CCc2cccc3c2C1Cc1sc(NCc2ccccc2)nc1-3 (stereo not drawn) [d, 6-Methyl-9-benzylamino-5,6,6a,7-tetrahydro-4H-benzo[de]thiazolo[4,5-g]chinolin] |  | > 50
CCN1CCc2cccc3c2C1Cc1sc(NC)nc1-3 (stereo not drawn) [e, 6-Ethyl-9-methylamino-5,6,6a,7-tetrahydro-4H-benzo[de]thiazolo[4,5-g]chinolin] |  | > 50
CCN1CCc2cccc3c2C1Cc1sc(N(C)C)nc1-3 (stereo not drawn) [f, 6-Ethyl-9-dimethylamino-5,6,6a,7-tetrahydro-4H-benzo[de]thiazolo[4,5-g]chinolin] |  | > 50
